Assay results taken from ChEMBL document CHEMBL5365457, “Selective HDAC3 Inhibitors with Potent In Vivo Antitumor Efficacy against Triple-Negative Breast Cancer” (J Med Chem, 2023).

Assays:
[1] = Cytotoxicity against human HEK293 cells assessed as inhibition of cell growth incubated for 72 hrs by MTT assay; format: toxicity, cell-based
[2] = Selectivity ratio of IC50 for cytotoxicity against human MCF-10A cells assessed as inhibition of cell growth to IC50 for cytotoxicity against human MDA-MB-453 cells assessed as inhibition of cell growth; format: toxicity, cell-based; conditions: MCF-10A cells versus MDA-MB-453 cells, read-out: Ratio IC50
[3] = Selectivity ratio of IC50 for cytotoxicity against human HCEC cells assessed as inhibition of cell growth to IC50 for cytotoxicity against human MDA-MB-231 cells assessed as inhibition of cell growth; format: toxicity, cell-based; conditions: HCEC cells versus MDA-MB-231 cells, read-out: Ratio IC50
[4] = Toxicity in BALB/c mouse implanted with mouse 4T1 cells assessed as effect on cell shape in heart at 5 to 15 mg/kg, ip measured after 21 days by H and E staining based assay; format: organism-based; conditions: in vivo, 504 h, dose 5-15 mg/kg, time 21 day

For `CCCNNC(=O)c1cnc(NCc2ccc(OC)cc2)cn1`, the IC50 at 72 h [1] was 239 µM, the selectivity ratio [2] was 385 and the selectivity ratio [3] was 286. For the same molecule, the Activity [4] was “Non-Toxic”.
